Experimental data: patent US20230092389A1, “UNIT DOSES, AEROSOLS, KITS, AND METHODS FOR TREATING HEART CONDITIONS BY PULMONARY ADMINISTRATION” (InCarda Therapeutics, Inc., priority 2017, published 2023)
Where two headings read alike, the source gives them in different places.

Tests used:
[1] = system: dogs with induced atrial fibrillation; type: in vivo, dog
Experimental: Atrial Fibrillation Model: A venous catheter was placed in a peripheral vessel (i.e., cephalic) for administration of anesthetic. […] Following induction, animals were endotracheally intubated and mechanically ventilated (˜12 breaths/minute with a tidal volume of 200-300 mL). Subsequently, a cut-down on a jugular vein permitted introduction of a pacing lead into the right atrium. Transthoracic electrodes forming ECG lead II were placed. For test/vehicle article delivery, a 4F catheter was introduced through the trachea and wedged into a small airway, and a venous catheter was placed in a peripheral vessel (i.e., cephalic). […] Approximately 5 min after administration of this parasympathomimetic was started; the following experiments were performed: […] Observations were made for up to 10 minutes. […] Vehicle was only water.

[2] = system: anesthetized Yorkshire pigs; experiment: PD (hemodynamics, ECG intervals) after IV or IT in anesthetized pigs (Example 5); type: in vivo
Experimental: All catheters were positioned under fluoroscopic guidance. […] Data are reported as means±SEM. Statistical analyses were performed using the SAS system (9.4) to apply ANOVA with a post-hoc Dunnett's test. Statistical significance was assumed at p<0.05.

[3] = system: pigs with induced atrial fibrillation; experiment: Cardioversion of induced AF by IT flecainide, intact porcine model (Example 6); type: in vivo, Yorkshire pigs
Experimental: After 30-min recovery, the alternate intervention was tested. Times for conversion to normal sinus rhythm were compared.

porcine model = experiment: Slow versus rapid IV infusion, porcine model; type: in vivo, pig; settings: slow (10 min) vs rapid (2 min) IV infusion
healthy volunteers = settings: in vivo
Source text: (§1) 3 cohorts of subjects, in total 34 healthy adult volunteers, were recruited for Part A study.
(§2) Part B was an open label non-randomized crossover in a cohort of 6 evaluable healthy adult volunteers.
Adverse events were monitored and recorded.

[4] = cited from earlier work
clinical = settings: human, in vivo; for Tmax: Tmax (min after EOI)
Source text: as §1, §2

[5] = IV 2 mg/Kg, n = 3, Mean ± SEM, package insert

- time for plasma concentration to reach levels required for conversion ([3]; IT 0.75 and 1.5 mg/kg (FIG. 66A)): ≤ 10 min
- subjects with study-drug related Cough (healthy volunteers; both, human): 12%
- subjects with study-drug related Dizziness (healthy volunteers; both, human): 12%
- subjects with study-drug related Dry mouth (healthy volunteers; both, human): 12%
- subjects with study-drug related Dysgeusia (healthy volunteers; both, human): 8%
- subjects with study-drug related Dyspnoea (shortness of breath) (healthy volunteers; both, human): 16%
- subjects with study-drug related Headache (healthy volunteers; both, human): 8%
- subjects with study-drug related Oropharyngeal discomfort (healthy volunteers; both, human): 40%
- average events per subject (healthy volunteers; human): 2
- probably study-drug related oropharyngeal discomfort (events) (healthy volunteers; human): 4
- study-drug related paresthesia oral (events) (healthy volunteers; human): 3
- average events per subject (healthy volunteers; human, iv): 7
- study-drug related application site coldness (occurrences) (healthy volunteers; human, iv): 2
- study-drug related dizziness (events) (healthy volunteers; human, iv): 6
- study-drug related headache (events) (healthy volunteers; human, iv): 5
- study-drug related peripheral coldness, palpitations, and chest discomfort, occurrences each (healthy volunteers; human, iv): 2
- systolic BP in subject whose IV infusion was interrupted for hypotension (healthy volunteers; human, iv): < 65 mmHg
- remaining study-drug related events (cough, dysphonia, dyspnoea, oral hypoesthesia, chest discomfort) (healthy volunteers; human, po): occurred once in 1 subject each
- half-life (clinical; both): 3.5 to 4.2 min
- half-life (clinical; inhaled or intranasal, 30 mg): 4.67 min
- Tmax (clinical; inhaled or intranasal, 30 mg): ≤ 1 min
- half-life (clinical; iv, 2 mg/kg): 4.28 min
- Tmax (clinical; iv, 2 mg/kg): 1 to 60 min
Structure (SMILES): O=C(NCC1CCCCN1)c1cc(OCC(F)(F)F)ccc1OCC(F)(F)F (centres unmarked) [flecainide]
- ECG trace: Afib conversion ([1]; 2 mg/kg (FIG. 12)): Afib converting as soon as dosing occurred
- ECG trace: Afib conversion ([1]; 4 mg/kg by intra-tracheal instillation (FIG. 11)): Afib converting into normal sinus rhythm
- ventricular rate ([1]; large pulmonary doses): slower ventricular rates
- effect on induced atrial fibrillation ([1]; pulmonary (IT) administration): rapidly converted the Atrial Fibrillation to normal sinus rhythm
- conversion of induced atrial fibrillation to normal sinus rhythm ([1]; pulmonary dose 2-4 mg/kg body weight): converted the induced atrial fibrillation to normal sinus rhythm
- cardiovascular effect when given by intratracheal instillation ([1]; summary of Example 2): clear cardiovascular effect
- QRS duration ([2]; IT 0.75 mg/kg, 2 min, baseline 58±1.8 ms): 64 ± 1.6 ms
- QRS duration ([2]; IT 0.75 mg/kg, 5 min, baseline 58±1.8 ms): 65 ± 1.7 ms
- QRS duration ([2]; IT 0.75 mg/kg, 30 min): 58 ± 0.9 ms
- mean arterial pressure ([2]; IT 0.75 mg/kg, baseline 111±3.6 mmHg, p=0.9112): not significantly altered across 30 min
- heart rate ([2]; IT 0.75 mg/kg, baseline 111±6.4 bpm, p=0.9970): not significantly altered across 30 min
- PR interval ([2]; IT 0.75 mg/kg, baseline 130±5.3 ms, p=0.9351): not significantly changed across 30 min
- JTc interval ([2]; IT 0.75 mg/kg, baseline 354±12.0 ms, p=0.7605): not significantly changed across 30 min
- QTc interval ([2]; IT 0.75 mg/kg, baseline 435±12.9 ms, p=0.5505): not significantly changed across 30 min
- QRS duration ([2]; IT 1.5 mg/kg, 2 min, baseline 57±0.4 ms): 68 ± 1.9 ms
- QRS duration ([2]; IT 1.5 mg/kg, 5 min): 69 ± 2.2 ms
- QRS duration ([2]; IT 1.5 mg/kg, 10 min): 67 ± 1.7 ms
- QRS duration ([2]; IT 1.5 mg/kg, 15 min): 64 ± 1.3 ms
- QRS duration ([2]; IT 1.5 mg/kg, 30 min): 60 ± 0.9 ms
- mean arterial pressure ([2]; IT 1.5 mg/kg, baseline 108±9.4 mmHg, p=0.9894): not significantly altered across 30 min
- heart rate ([2]; IT 1.5 mg/kg, baseline 118±13.2 bpm, p=0.9999): not significantly altered across 30 min
- PR interval ([2]; IT 1.5 mg/kg, baseline 127±2.3 ms, p=0.0819): not significantly changed across 30 min
- JTc interval ([2]; IT 1.5 mg/kg, baseline 364±11.5 ms, p=0.9968): not significantly changed across 30 min
- QTc interval ([2]; IT 1.5 mg/kg, baseline 436±7.1 ms, p=0.1510): not significantly changed across 30 min
- heart rate ([2]; IV 2 mg/kg over 2 min, baseline 103±1.9 bpm, p=0.9936): not significantly altered across 30 min
- QRS duration ([2]; IV 2 mg/kg, 2 min, baseline 58±1.9 ms): 77 ± 6.2 ms
- QRS duration ([2]; IV 2 mg/kg, 5 min, baseline 58±1.9 ms): 76 ± 4.8 ms
- QRS duration ([2]; IV 2 mg/kg, 30 min): 59 ± 3.0 ms
- mean arterial pressure ([2]; IV 2 mg/kg, baseline 105±6.7 mmHg, p=0.8852): not significantly altered across 30 min
- PR interval ([2]; IV 2 mg/kg, baseline 127±7.8 ms, p=0.5161): not significantly changed across 30 min
- JTc interval ([2]; IV 2 mg/kg, baseline 367±7.4 ms, p=0.9686): not significantly changed across 30 min
- QTc interval ([2]; IV 2 mg/kg, baseline 442±7.9 ms, p=0.35): not significantly changed across 30 min
- reduction of AF duration ([3]; IT 0.75 mg/kg vs no-drug): 50%
- time to conversion of AF to normal sinus rhythm ([3]; IT 0.75 mg/kg, n=3, no-drug 16.2±0.9): 8.1 ± 1.0 min
- AF conversion in representative electrograms, time after IT flecainide ([3]; IT 1.5 mg/kg (FIG. 65)): 5 min
- shortening in AF duration ([3]; IT 1.5 mg/kg vs no drug): 72%
- time to conversion of AF to normal sinus rhythm (mean±SEM) ([3]; IT 1.5 mg/kg, n=5, no drug 12.3±1.9 min): 3.4 ± 0.3 min
- dominant frequency of AF ([3]; IT 0.75 and 1.5 mg/kg): reduced the dominant frequency of AF
- relation of AF duration to dose ([3]; IT 0.75 and 1.5 mg/kg): AF duration correlated with flecainide dose
- MAP and ventricular rate after conversion ([3]; IT 1.5 or 0.75 mg/kg): restored MAP and ventricular rate to baseline values
- effectiveness in rapidly converting AF to normal sinus rhythm ([3]; IT 1.5 or 0.75 mg/kg): 100%
- correlation of venous plasma levels with QRS duration (porcine model): positively correlated with QRS duration
- Adverse Event: Cough (healthy volunteers; both, human): 1
- Adverse Event: Lightheadedness (healthy volunteers; both, human): 1
- Number of Moderate or Severe TEAEs (healthy volunteers; both, human): 3
- Number of Study Drug Related TEAEs (healthy volunteers; both, human): 43
- Number of Study Drug Related, Moderate or Severe TEAEs (healthy volunteers; both, human): 2
- Number of TEAEs (healthy volunteers; both, human): 59
- Subjects with at least one Moderate or Severe TEAE (healthy volunteers; both, human): 2 (8) n (%)
- Subjects with at least one Study Drug Related TEAE (healthy volunteers; both, human): 22 (80) n (%)
- Subjects with at least one Study Drug Related, Moderate or Severe TEAE (healthy volunteers; both, human): 1 (4) n (%)
- Subjects with at least one TEAE (healthy volunteers; both, human): 22 (88) n (%)
- TEAE: Catheter site pain (healthy volunteers; both, human): 2 (8) [2] n (%) [events]
- TEAE: Cough (healthy volunteers; both, human): 3 (12) [4] n (%) [events]
- TEAE: Diarrhoea (healthy volunteers; both, human): 2 (8) [2] n (%) [events]
- TEAE: Dizziness (healthy volunteers; both, human): 3 (12) [3] n (%) [events]
- TEAE: Dry mouth (healthy volunteers; both, human): 3 (12) [3] n (%) [events]
- TEAE: Dysgeusia (healthy volunteers; both, human): 2 (8) [2] n (%) [events]
- TEAE: Dyspnoea (healthy volunteers; both, human): 6 (24) [6] n (%) [events]
- TEAE: Gastrointestinal disorders (healthy volunteers; both, human): 8 (32) [11] n (%) [events]
- TEAE: General disorders and administration site conditions (healthy volunteers; both, human): 3 (12) [4] n (%) [events]
- TEAE: Headache (healthy volunteers; both, human): 4 (16) [5] n (%) [events]
- TEAE: Nervous system disorders (healthy volunteers; both, human): 8 (32) [11] n (%) [events]
- TEAE: Oropharyngeal discomfort (healthy volunteers; both, human): 11 (44) [11] n (%) [events]
- TEAE: Respiratory, thoracic and mediastinal disorders (healthy volunteers; both, human): 17 (68) [25] n (%) [events]
- duration of the majority of adverse events (healthy volunteers; both, human): 15 to 90 min
- TEAE: Hypoaesthesia oral (healthy volunteers; human, 2 mg/kg): 1 (14) [1] n (%) [events]
- TEAE: Paraesthesia oral (healthy volunteers; human, 2 mg/kg): 3 (43) [3] n (%) [events]
- severe and moderate AEs probably related to study drug (healthy volunteers; human, iv): 1 severe and 2 moderate intensity AEs
- Number of Moderate or Severe TEAEs (healthy volunteers; human, iv, 2 mg/kg): 4
- Number of Related TEAEs (healthy volunteers; human, iv, 2 mg/kg): 35
- Number of Related, Moderate or Severe TEAEs (healthy volunteers; human, iv, 2 mg/kg): 4
- Number of SAEs (healthy volunteers; human, iv, 2 mg/kg): 0
- Number of Subjects with at least one Moderate or Severe TEAE (healthy volunteers; human, iv, 2 mg/kg): 2 (29) n (%)
- Number of Subjects with at least one Related TEAE (healthy volunteers; human, iv, 2 mg/kg): 7 (100) n (%)
- Number of Subjects with at least one Related, Moderate or Severe TEAE (healthy volunteers; human, iv, 2 mg/kg): 2 (29) n (%)
- Number of Subjects with at least one SAE (healthy volunteers; human, iv, 2 mg/kg): 0 n (%)
- Number of Subjects with at least one TEAE (healthy volunteers; human, iv, 2 mg/kg): 7 (100) n (%)
- Number of Treatment-Emergent Adverse Events (healthy volunteers; human, iv, 2 mg/kg): 49
- TEAE: Application site coldness (healthy volunteers; human, iv, 2 mg/kg): 2 (29) [2] n (%) [events]
- TEAE: Catheter site pain (healthy volunteers; human, iv, 2 mg/kg): 2 (29) [2] n (%) [events]
- TEAE: Chest discomfort (healthy volunteers; human, iv, 2 mg/kg): 1 (14) [3] n (%) [events]
- TEAE: Dizziness (healthy volunteers; human, iv, 2 mg/kg): 6 (86) [6] n (%) [events]
- TEAE: Fatigue (healthy volunteers; human, iv, 2 mg/kg): 2 (29) [2] n (%) [events]
- TEAE: Gastrointestinal disorders (healthy volunteers; human, iv, 2 mg/kg): 5 (71) [6] n (%) [events]
- TEAE: General disorders and administration site conditions (healthy volunteers; human, iv, 2 mg/kg): 4 (57) [13] n (%) [events]
- TEAE: Headache (healthy volunteers; human, iv, 2 mg/kg): 5 (71) [6] n (%) [events]
- TEAE: Nervous system disorders (healthy volunteers; human, iv, 2 mg/kg): 7 (100) [13] n (%) [events]
- TEAE: Peripheral coldness (healthy volunteers; human, iv, 2 mg/kg): 2 (29) [3] n (%) [events]
- TEAE: Respiratory, thoracic and mediastinal disorders (healthy volunteers; human, iv, 2 mg/kg): 2 (29) [3] n (%) [events]
- TEAE: Vascular disorders (healthy volunteers; human, iv, 2 mg/kg): 3 (43) [4] n (%) [events]
- fewer TEAEs with IH than IV (healthy volunteers; human, iv, 2 mg/kg): 4 fold
- AEs occurring more frequently than with placebo (healthy volunteers): oropharyngeal discomfort, shortness of breath (dyspnoea), cough and dry mouth
- dose dependence of incidence of AEs (healthy volunteers): appears not to be dose-dependent
- intensity of TEAEs (healthy volunteers): mild in intensity
- serious adverse events (healthy volunteers): No serious adverse events were reported
- tolerability of inhalation (healthy volunteers): well tolerated, and no subject interrupted the inhalation
- AUClast [4, 5]: 4211 ± 456 ng·h/mL
- Cmax [4, 5]: 1644 ± 534 ng/mL
- Tmax ([4]; IV 2 mg/Kg, n = 3, package insert): 10.0 min
- Dist. t1/2 ([4]; in vivo, iv, 2 mg/kg): 2.6 ± 0.7 min
- Elim. t1/2 ([4]; in vivo, iv, 2 mg/kg): 558 ± 6 min
